Data reported in US10124004B2, “Pyrido[3,4-d]pyrimidine derivative and pharmaceutically acceptable salt thereof” (Teijin Pharma Limited, priority 2015, dated 2018).
Where two headings read alike, the source gives them in different places.

What was measured:
CDK2/cyclin A2 = biological target: T1, CDK2/cyclin A2 (Homo sapiens, UniProt P24941); experiment: Human CDK2/cyclin A2 inhibitory activity (QS S Assist CDK2/Cyclin A2_FP Kit, IMAP fluorescence polarization); type: biochemical
T1 construct: purchased Carna Biosciences, Inc. QS S Assist CDK2/Cyclin A2_FP Kit
Outline: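 Kinase activity read as fluorescence polarization (485/535 nm) after phosphorylated fluorescent substrate binds IMAP reagent (30 min, RT, dark). Enzyme (2.5 ng/well) reacted 60 min at RT with ATP/substrate/metal in HEPES pH 7.4 buffer with Tween 20 and DTT; no-enzyme wells define 0% activity; IC50 by curve fit.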

CDK4/cyclin D3 = biological target: T2, CDK4/cyclin D3 (Homo sapiens, UniProt P11802); experiment: Human CDK4/cyclin D3 inhibitory activity (QS S Assist CDK4/Cyclin D3_FP Kit, IMAP fluorescence polarization); type: biochemical
T2 construct: purchased Carna Biosciences, Inc. QS S Assist CDK4/Cyclin D3_FP Kit
Outline: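 Percent inhibition, relative to DMSO with and without enzyme, was curve-fitted to give IC50 from polarization (ex 485, em 535 nm). The 45-min room-temperature reaction used 12.5-25 ng/well enzyme, kit ATP/substrate/metal mix, and HEPES pH 7.4 buffer with Tween20 and DTT, followed by 30-min IMAP binding in the dark.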

[1] = 50% inhibitory concentration against CDK2/cyclin A2, given as class symbol
[2] = 50% inhibitory concentration against CDK4/cyclin D3, given as class symbol
[3] = Human CDK2/cyclin A2 inhibitory activity, read-out: CDK2 Activity symbol
[4] = Human CDK4/cyclin D3 inhibitory activity, read-out: CDK4 Activity symbol

T2 sequence (P11802 whole entry): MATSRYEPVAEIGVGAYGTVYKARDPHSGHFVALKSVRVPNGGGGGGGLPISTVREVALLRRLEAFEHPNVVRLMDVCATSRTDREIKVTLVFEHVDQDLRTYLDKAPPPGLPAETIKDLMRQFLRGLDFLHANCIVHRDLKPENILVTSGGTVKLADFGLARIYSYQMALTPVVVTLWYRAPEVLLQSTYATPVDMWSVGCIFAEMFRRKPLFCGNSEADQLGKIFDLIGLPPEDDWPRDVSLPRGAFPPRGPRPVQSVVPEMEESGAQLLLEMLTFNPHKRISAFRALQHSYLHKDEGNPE
T2 sequence (P30281 whole entry partner): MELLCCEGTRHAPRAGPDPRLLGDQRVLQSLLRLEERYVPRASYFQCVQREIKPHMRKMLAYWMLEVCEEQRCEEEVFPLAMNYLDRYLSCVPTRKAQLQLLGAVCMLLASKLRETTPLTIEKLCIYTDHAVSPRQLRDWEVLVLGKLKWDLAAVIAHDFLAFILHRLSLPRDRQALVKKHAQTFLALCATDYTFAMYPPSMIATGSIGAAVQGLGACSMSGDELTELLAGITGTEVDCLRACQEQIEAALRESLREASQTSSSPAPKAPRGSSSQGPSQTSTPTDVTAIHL

SMILES: C[C@@H](O)c1cc2cnc(Nc3ccc(N4CCNCC4)cn3)nc2c(N[C@H]2CCOC2)n1 [Compound 994]
- IC50 (CDK2/cyclin A2; [1]): ≥ 100 nM
- IC50 (CDK4/cyclin D3; [2]): < 10 nM

SMILES: CC(C)Nc1nc([C@@H](C)O)cc2cnc(Nc3ccc(N4CCCCC(N)C4=O)cn3)nc12 (some centres unmarked) [Compound 554]
- IC50 (CDK2/cyclin A2; [3]): ≥ 100 nM
- IC50 (CDK4/cyclin D3; [4]): < 10 nM

SMILES: CN(C)CCN1CCc2nc(Nc3ncc4cc(C5(C)COC5)nc(N[C@H]5CCCOC5)c4n3)ccc2C1 [Compound 1179]
- IC50 (CDK2/cyclin A2; [1]): ≥ 100 nM
- IC50 (CDK4/cyclin D3; [2]): < 10 nM

SMILES: CNC(=O)C1CCN(Cc2ccc(Nc3ncc4cc([C@@H](C)OC)nc(NC(C)C)c4n3)nc2)CC1 [Compound 278]
- IC50 (CDK2/cyclin A2; [3]): ≥ 100 nM
- IC50 (CDK4/cyclin D3; [4]): < 10 nM

SMILES: CC(C)(C)Nc1nc(C(F)F)cc2cnc(Nc3ccc(N4CCNCC4)cn3)nc12 [Compound 13]
- IC50 (CDK2/cyclin A2; [3]): 10 to 100 nM
- IC50 (CDK4/cyclin D3; [4]): < 10 nM

SMILES: C[C@@H](O)c1cc2cnc(Nc3ccc(CN4CCNCC4)cn3)nc2c(N[C@@H]2CCOC2)n1 [Compound 259]
- IC50 (CDK2/cyclin A2; [3]): ≥ 100 nM
- IC50 (CDK4/cyclin D3; [4]): < 10 nM

SMILES: CC(C)Nc1nc(C(F)F)cc2cnc(Nc3ccc(C4CCS(=O)(=O)CC4)cn3)nc12 [Compound 159]
- IC50 (CDK2/cyclin A2; [3]): ≥ 100 nM
- IC50 (CDK4/cyclin D3; [4]): < 10 nM

SMILES: CC(C)Nc1nc([C@@H](C)O)cc2cnc(Nc3ccc(C(=O)N4CC[C@H](N(C)C)C4)cn3)nc12 [Compound 1162]
- IC50 (CDK2/cyclin A2; [1]): 10 to 100 nM
- IC50 (CDK4/cyclin D3; [2]): < 10 nM

SMILES: CC(C)Nc1nc(C(C)O)cc2cnc(Nc3ccc(C4CCNCC4)cn3)nc12 (centres unmarked) [Compound 78]
- IC50 (CDK2/cyclin A2; [3]): ≥ 100 nM
- IC50 (CDK4/cyclin D3; [4]): < 10 nM

SMILES: CCCN1CCN(Cc2ccc(Nc3ncc4cc([C@@H](C)OC)nc(NC(C)C)c4n3)nc2)CC1 [Compound 239]
- IC50 (CDK2/cyclin A2; [3]): ≥ 100 nM
- IC50 (CDK4/cyclin D3; [4]): < 10 nM

SMILES: CC(C)Nc1nc(C2CCOC2)cc2cnc(Nc3ccc4c(n3)CCN(CCN(C)C)C4)nc12 (centres unmarked) [Compound 1230]
- IC50 (CDK2/cyclin A2; [1]): ≥ 100 nM
- IC50 (CDK4/cyclin D3; [2]): < 10 nM

SMILES: CC(C)Nc1nc([C@@H](C)O)cc2cnc(Nc3ccc(N4CCN(C5CCC5)CC4)nn3)nc12 [Compound 602]
- IC50 (CDK2/cyclin A2; [3]): ≥ 100 nM
- IC50 (CDK4/cyclin D3; [4]): < 10 nM

SMILES: CO[C@H](C)c1cc2cnc(Nc3ccc(C4CCNCC4)cn3)nc2c(N[C@H]2CCCOC2)n1 [Compound 956]
- IC50 (CDK2/cyclin A2; [1]): ≥ 100 nM
- IC50 (CDK4/cyclin D3; [2]): < 10 nM

SMILES: C[C@@H](O)c1cc2cnc(Nc3ccc(N4CCNCC4)nn3)nc2c(NC(C)(C)C)n1 [Compound 791]
- IC50 (CDK2/cyclin A2; [1]): 10 to 100 nM
- IC50 (CDK4/cyclin D3; [2]): < 10 nM

SMILES: CC(O)c1cc2cnc(Nc3ccc(N4CCNCC4=O)cn3)nc2c(NC2CCCOC2)n1 (centres unmarked) [Compound 346]
- IC50 (CDK2/cyclin A2; [3]): ≥ 100 nM
- IC50 (CDK4/cyclin D3; [4]): < 10 nM

SMILES: CO[C@H](C)c1cc2cnc(Nc3ccc(N4CCNCC4)nn3)nc2c(N[C@@H]2CCOC2)n1 [Compound 307]
- IC50 (CDK2/cyclin A2; [3]): ≥ 100 nM
- IC50 (CDK4/cyclin D3; [4]): < 10 nM

SMILES: CC(C)Nc1nc(C2CCOC2)cc2cnc(Nc3ccc4c(n3)CCN(CCO)C4)nc12 (centres unmarked) [Compound 1229]
- IC50 (CDK2/cyclin A2; [1]): ≥ 100 nM
- IC50 (CDK4/cyclin D3; [2]): < 10 nM

SMILES: CC(C)Nc1nc(C(F)F)cc2cnc(Nc3ccc(OCC(C)(C)CO)cn3)nc12 [Compound 122]
- IC50 (CDK2/cyclin A2; [3]): ≥ 100 nM
- IC50 (CDK4/cyclin D3; [4]): 10 to 100 nM

SMILES: CC(C)Nc1nc([C@@H](C)O)cc2cnc(Nc3ccc(CN4CCN(C(=O)C5CCOC5)CC4)cn3)nc12 (some centres unmarked) [Compound 1193]
- IC50 (CDK2/cyclin A2; [1]): ≥ 100 nM
- IC50 (CDK4/cyclin D3; [2]): < 10 nM

SMILES: C[C@@H](O)c1cc2cnc(Nc3ccc(OCC4CNC4)cn3)nc2c(N[C@H]2CCCOC2)n1 [Compound 800]
- IC50 (CDK2/cyclin A2; [1]): ≥ 100 nM
- IC50 (CDK4/cyclin D3; [2]): < 10 nM

SMILES: C[C@@H](O)c1cc2cnc(Nc3ccc(N4CCNCC4)nn3)nc2c(NC2CCCC2C(=O)O)n1 (some centres unmarked) [Compound 309]
- IC50 (CDK2/cyclin A2; [3]): ≥ 100 nM
- IC50 (CDK4/cyclin D3; [4]): ≥ 100 nM

SMILES: CCNc1nc([C@@H](C)O)cc2cnc(Nc3ccc(CN4CCN(CC(C)(C)O)CC4)cn3)nc12 [Compound 1073]
- IC50 (CDK2/cyclin A2; [1]): ≥ 100 nM
- IC50 (CDK4/cyclin D3; [2]): < 10 nM

SMILES: CC(C)Nc1nc(C(F)F)cc2cnc(Nc3ccc(CN4CCC(C(N)=O)CC4)cn3)nc12 [Compound 125]
- IC50 (CDK2/cyclin A2; [3]): 10 to 100 nM
- IC50 (CDK4/cyclin D3; [4]): < 10 nM

SMILES: CC(C)CNc1nc([C@@H](C)O)cc2cnc(Nc3ccc(CN4CCC(CO)CC4)cn3)nc12 [Compound 1024]
- IC50 (CDK2/cyclin A2; [1]): ≥ 100 nM
- IC50 (CDK4/cyclin D3; [2]): < 10 nM

SMILES: CC(C)Nc1nc([C@@H](C)O)cc2cnc(Nc3ccc(OCC(=O)N4CCNCC4)cn3)nc12 [Compound 559]
- IC50 (CDK2/cyclin A2; [3]): ≥ 100 nM
- IC50 (CDK4/cyclin D3; [4]): < 10 nM

SMILES: CCCNc1nc(C(C)=O)cc2cnc(Nc3ccc(N4CCNCC4)cn3)nc12 [Compound 1028]
- IC50 (CDK2/cyclin A2; [1]): ≥ 100 nM
- IC50 (CDK4/cyclin D3; [2]): 10 to 100 nM

SMILES: CCC(O)c1cc2cnc(Nc3ccc(N4CCNCC4=O)cn3)nc2c(NC(C)C)n1 (centres unmarked) [Compound 1037]
- IC50 (CDK2/cyclin A2; [1]): ≥ 100 nM
- IC50 (CDK4/cyclin D3; [2]): 10 to 100 nM

SMILES: c1cc2c(nc1Nc1ncc3cc(C4CCOC4)nc(N[C@H]4CCCOC4)c3n1)CCNC2 (single isomer, unassigned) [Compound 942]
- IC50 (CDK2/cyclin A2; [1]): ≥ 100 nM
- IC50 (CDK4/cyclin D3; [2]): < 10 nM
